From patent US11492375B2, “Cyclic peptide immunomodulators” (Bristol-Myers Squibb Company, priority 2017, dated 2022) come the findings set out here.

Like-named read-outs stand apart in the source and are kept apart here.

The experiment addresses PD-1-Ig binding to PD-L1-TVMV-His (PD-L1-His) (Homo sapiens (Human), UniProt Q9NZQ7). The experiment can be described thus: PD-1/PD-L1 Homogenous Time-Resolved Fluorescence (HTRF) binding assay. The settings on record: PD-1-Ig/PD-L1-His binding, read-out: HTRF IC50 (μM) or Range. The source says:
The ability of the macrocyclic peptides of the present disclosure to bind to PD-L1 was investigated using a PD-1/PD-L1 Homogenous Time-Resolved Fluorescence (HTRF) binding assay.
Homogenous Time-Resolved Fluorescence (HTRF) Assays of Binding of Soluble PD-1 to Soluble PD-L1. Soluble PD-1 and soluble PD-L1 refers to proteins with carboxyl-end truncations that remove the transmembrane-spanning regions and are fused to heterologous sequences, specifically the Fc portion of the human immunoglobuling G sequence (Ig) or the hexahistidine epitope tag (His). All binding studies were performed in an HTRF assay buffer consisting of dPBS supplemented with 0.1% (w/v) bovine serum albumin and 0.05% (v/v) Tween-20. For the PD-1-Ig/PD-L1-His binding assay, inhibitors were pre-incubated with PD-L1-His (10 nM final) for 15m in 4 μl of assay buffer, followed by addition of PD-1-Ig (20 nM final) in 1 μl of assay buffer and further incubation for 15 m. PD-L1 fusion proteins from either human, cynomologous macaques, mouse, or other species were used. HTRF detection was achieved using europium crypate-labeled anti-Ig monoclonal antibody (1 nM final) and allophycocyanin (APC) labeled anti-His monoclonal antibody (20 nM final). Antibodies were diluted in HTRF detection buffer and 5 μl was dispensed on top of binding reaction. The reaction was allowed to equilibrate for 30 minutes and signal (665 nm/620 nm ratio) was obtained using an EnVision fluorometer. Additional binding assays were established between PD-1-Ig/PD-L2-His (20 and 5 nM, respectively), CD8O-His/PD-L1-Ig (100 and 10 nM, respectively) and CD80-His/CTLA4-Ig (10 and 5 nM, respectively). Binding/competition studies between biotinylated Compound No. 71 and human PD-L1-His were performed as follows. Macrocyclic peptide inhibitors were pre-incubated with PD-L1-His (10 nM final) for 60 minutes in 4 μl of assay buffer followed by addition of biotinylated Compound No. 71 (0.5 nM final) in 1 μl of assay buffer. Binding was allowed to equilibrate for 30 minutes followed by addition of europium crypated labeled Streptavidin (2.5 pM final) and APC-labeled anti-His (20 nM final) in 5 μl of HTRF buffer. The reaction was allowed to equilibrate for 30 m and signal (665 nm/620 nm ratio) was obtained using an EnVision fluorometer.
Recombinant Proteins. Carboxyl-truncated human PD-1 (amino acids 25-167) with a C-terminal human Ig epitope tag [hPD-1 (25-167)-35-IG] and human PD-L1 (amino acids 18-239) with a C-terminal His epitope tag [hPD-L1(19-239)-tobacco vein mottling virus protease cleavage site (TVMV)-His] were expressed in HEK293T cells and purified sequentially by recombinant Protein A affinity chromatography and size exclusion chromatography. Human PD-L2-His (Sino Biologicals), CD80-His (Sino Biologicals), CTLA4-Ig (RnD Systems) were all obtained through commercial sources.
(In general: TR-FRET usually uses a lanthanide donor and a delayed reading to cut background.)

PD-1-Ig binding to PD-L1-TVMV-His (PD-L1-His), sequence (Q9NZQ7 other isoform, or with tags, fused parts or gaps): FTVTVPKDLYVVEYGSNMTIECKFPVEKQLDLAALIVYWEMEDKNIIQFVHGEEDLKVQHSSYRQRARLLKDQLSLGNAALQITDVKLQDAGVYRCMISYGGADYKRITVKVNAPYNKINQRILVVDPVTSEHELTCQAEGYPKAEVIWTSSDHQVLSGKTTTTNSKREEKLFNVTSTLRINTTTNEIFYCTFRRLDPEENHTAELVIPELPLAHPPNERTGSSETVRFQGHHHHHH

With `CC(C)C[C@@H]1NC(=O)[C@H](Cc2cnc[nH]2)NC(=O)[C@@H]2CCCN2C(=O)[C@H](CC(N)=O)NC(=O)[C@H](C)N(C)C(=O)[C@H](Cc2ccccc2)NC(=O)CSC[C@@H](C(=O)NCC(N)=O)NC(=O)[C@H](CCCNC(=N)N)NC(=O)[C@@H]2CCCC/C=C/CCCC[C@@H](C(=O)N2C)N(C)C(=O)[C@H](Cc2c[nH]c3ccccc23)NC(=O)[C@H](CO)NC(=O)[C@H](Cc2c[nH]c3ccccc23)NC(=O)CN(C)C1=O` [Example 1001], the IC50 (commonly the concentration that gives 50% inhibition) (value given as range class) lay in the range of 0.01 to 0.099 µM. Take `CC(C)C[C@@H]1NC(=O)[C@H](Cc2cnc[nH]2)NC(=O)[C@@H]2CCCN2C(=O)[C@H](CC(N)=O)NC(=O)[C@H](C)N(C)C(=O)[C@H](Cc2ccccc2)NC(=O)CSC[C@@H](C(=O)NCC(N)=O)NC(=O)[C@H](CCCNC(=N)N)NC(=O)[C@@H]2CCCCC/C=C/CCCCC[C@@H](C(=O)N2C)N(C)C(=O)[C@H](Cc2c[nH]c3ccccc23)NC(=O)[C@H](CO)NC(=O)[C@H](Cc2c[nH]c3ccccc23)NC(=O)CN(C)C1=O` [Example 1002]: the 50% inhibitory concentration (IC50) (value given as range class) was in the range of 0.01 to 0.099 µM. With `CC(C)C[C@@H]1NC(=O)[C@H](Cc2cnc[nH]2)NC(=O)[C@@H]2CCCN2C(=O)[C@H](CC(N)=O)NC(=O)[C@H](C)N(C)C(=O)[C@H](Cc2ccccc2)NC(=O)CSC[C@@H](C(=O)NCC(N)=O)NC(=O)[C@H](CCCNC(=N)N)NC(=O)[C@@H]2CCCC/C=C\CCCC[C@@H](C(=O)N2C)N(C)C(=O)[C@H](Cc2c[nH]c3ccccc23)NC(=O)[C@H](CO)NC(=O)[C@H](Cc2c[nH]c3ccccc23)NC(=O)CN(C)C1=O` [Example 1100], for the setting “value given as range class”, the IC50 lay within 0.01 to 0.099 µM. Consider `CC(C)C[C@@H]1NC(=O)[C@H](Cc2cnc[nH]2)NC(=O)[C@@H]2CCCN2C(=O)[C@H](CC(N)=O)NC(=O)[C@H](C)N(C)C(=O)[C@H](Cc2ccc(O)cc2)NC(=O)CSC[C@@H](C(=O)NCC(N)=O)NC(=O)[C@H](CCCNC(=N)N)NC(=O)[C@@H]2CCC/C=C\CCC[C@@H](C(=O)N2C)N(C)C(=O)[C@H](Cc2c[nH]c3ccccc23)NC(=O)[C@H](CO)NC(=O)[C@H](Cc2c[nH]c3ccccc23)NC(=O)[C@@H]2C[C@@H](O)CN2C1=O` [Example 1101], for which, under “value given as range class”, the IC50 is 0.1 to 2 µM. As for `CC(C)C[C@@H]1NC(=O)[C@H](Cc2cnc[nH]2)NC(=O)[C@@H]2CCCN2C(=O)[C@H](CC(N)=O)NC(=O)[C@H](C)N(C)C(=O)[C@H](Cc2ccc(O)cc2)NC(=O)CSC[C@@H](C(=O)NCC(N)=O)NC(=O)[C@H](CCCNC(=N)N)NC(=O)[C@@H]2CC/C=C\CC[C@@H](C(=O)N2C)N(C)C(=O)[C@H](Cc2c[nH]c3ccccc23)NC(=O)[C@H](CO)NC(=O)[C@H](Cc2c[nH]c3ccccc23)NC(=O)[C@@H]2C[C@@H](O)CN2C1=O` [Example 1102], the IC50 (value given as range class) fell in the range of 0.1 to 2 µM. Regarding `CC(C)C[C@@H]1NC(=O)[C@H](CN)NC(=O)[C@@H]2CCCN2C(=O)[C@H](CC(N)=O)NC(=O)[C@H](C)N(C)C(=O)[C@H](Cc2ccc(O)cc2)NC(=O)CSC[C@H](C(=O)NCC(N)=O)NC(=O)[C@@H](C)NC(=O)[C@H]2CC/C=C\CC[C@@H](C(=O)N2C)N(C)C(=O)[C@H](Cc2c[nH]c3ccccc23)NC(=O)[C@H](CO)NC(=O)[C@@H](Cc2c[nH]c3ccccc23)NC(=O)[C@@H]2C[C@@H](O)CN2C1=O` [Example 1103], the IC50 (numeric value) is 1.5 µM. On to `CC(C)C[C@@H]1NC(=O)[C@H](CN)NC(=O)[C@@H]2CCCN2C(=O)[C@H](CC(N)=O)NC(=O)[C@H](C)N(C)C(=O)[C@H](Cc2ccc(O)cc2)NC(=O)CSC[C@H](C(=O)NCC(N)=O)NC(=O)[C@@H](CCCN)NC(=O)[C@H]2CCC/C=C\CCC[C@@H](C(=O)N2C)N(C)C(=O)[C@H](Cc2c[nH]c3ccccc23)NC(=O)[C@H](CO)NC(=O)[C@@H](Cc2c[nH]c3ccccc23)NC(=O)[C@@H]2C[C@@H](O)CN2C1=O` [Example 1104], for which the IC50 (value given as range class) was in the range of 0.01 to 0.099 µM. On to `CC(C)C[C@@H]1NC(=O)[C@H](Cc2cnc[nH]2)NC(=O)[C@@H]2CCCN2C(=O)[C@H](CC(N)=O)NC(=O)[C@@H]2COCCN2C(=O)[C@H](Cc2ccc(O)cc2)NC(=O)CSC[C@H](C(=O)NCC(N)=O)NC(=O)[C@@H](C)NC(=O)C2CCC/C=C\CCC[C@@H](C(=O)N2C)N(C)C(=O)[C@H](Cc2c[nH]c3ccccc23)NC(=O)[C@H](CO)NC(=O)[C@@H](Cc2c[nH]c3ccccc23)NC(=O)[C@@H]2C[C@@H](O)CN2C1=O` [Example 1105], for which, under “value given as range class”, the IC50 fell in the range of 0.1 to 2 µM. With `CC(C)C[C@@H]1NC(=O)[C@H](CN)NC(=O)[C@@H]2CCCN2C(=O)[C@H](CC(N)=O)NC(=O)[C@H](C)N(C)C(=O)[C@H](Cc2ccc(O)cc2)NC(=O)CSC[C@H](C(=O)NCC(N)=O)NC(=O)[C@@H](C)NC(=O)[C@H]2CCC/C=C\CCC[C@@H](C(=O)N2C)N(C)C(=O)[C@H](Cc2c[nH]c3ccccc23)NC(=O)[C@H](CO)NC(=O)[C@@H](Cc2c[nH]c3ccccc23)NC(=O)[C@@H]2C[C@@H](O)CN2C1=O` [Example 1106], the half-maximal inhibitory concentration (IC50) (value given as range class) was in the range of 0.1 to 2 µM.

Take `CC(C)C[C@@H]1NC(=O)[C@H](CN)NC(=O)[C@@H]2CCCN2C(=O)[C@H](CC(N)=O)NC(=O)[C@H](C)N(C)C(=O)[C@H](Cc2ccc(O)cc2)NC(=O)CSC[C@@H](C(N)=O)NC(=O)[C@H](CCCNC(=N)N)NC(=O)[C@@H]2CCCC/C=C\CCCC[C@@H](C(=O)N2C)N(C)C(=O)[C@H](Cc2c[nH]c3ccccc23)NC(=O)[C@H](CO)NC(=O)[C@H](Cc2c[nH]c3ccccc23)NC(=O)[C@@H]2C[C@@H](O)CN2C1=O` [Example 1107]: for the setting “value given as range class”, the IC50 was 0.01 to 0.099 µM.

In the case of `C[C@H]1C(=O)N[C@@H](CC(=O)O)C(=O)N2CCC[C@H]2C(=O)N[C@@H](CN)C(=O)N[C@@H](CCC(=O)O)C(=O)N2C[C@H](O)C[C@H]2C(=O)N[C@@H](Cc2c[nH]c3ccccc23)C(=O)N[C@@H](CO)C(=O)N[C@@H](Cc2c[nH]c3ccccc23)C(=O)N(C)[C@H]2CCCC/C=C\CCCC[C@@H](C(=O)N[C@@H](CCC(=O)O)C(=O)N[C@H](C(N)=O)CSCC(=O)N[C@@H](Cc3ccc(O)cc3)C(=O)N1C)N(C)C2=O` [Example 1108], the IC50 (value given as range class) was in the range of 0.002 to 0.0099 µM.

For the molecule `CC(C)C[C@@H]1NC(=O)[C@H](CN)NC(=O)[C@@H]2CCCN2C(=O)[C@H](CC(N)=O)NC(=O)[C@H](C)N(C)C(=O)[C@H](Cc2ccc(O)cc2)NC(=O)CSC[C@H](C(=O)NCC(N)=O)NC(=O)[C@@H](CCCNC(=N)N)NC(=O)[C@@H]2CCCC/C=C\CCCC[C@@H](C(=O)N2C)N(C)C(=O)[C@H](Cc2c[nH]c3ccccc23)NC(=O)[C@H](CO)NC(=O)[C@@H](Cc2c[nH]c3ccccc23)NC(=O)[C@@H]2C[C@@H](O)CN2C1=O` [Example 1109], the IC50 (value given as range class) lay within 0.002 to 0.0099 µM. Same read-out and setting: with `CC(C)C[C@@H]1NC(=O)[C@H](Cc2c[nH]cn2)NC(=O)[C@@H]2CCCN2C(=O)[C@H](CC(N)=O)NC(=O)[C@@H]2COCCN2C(=O)[C@H](Cc2ccc(O)cc2)NC(=O)CSC[C@H](C(=O)NCC(N)=O)NC(=O)[C@@H](C)NC(=O)[C@@H]2CCC/C=C\CCC[C@@H](C(=O)N2C)N(C)C(=O)[C@H](Cc2c[nH]c3ccccc23)NC(=O)[C@H](CO)NC(=O)[C@@H](Cc2c[nH]c3ccccc23)NC(=O)[C@@H]2C[C@@H](O)CN2C1=O` [Example 1110] the figure was 0.01 to 0.099 µM; with `C[C@H]1C(=O)N[C@@H](CC(=O)O)C(=O)N2CCC[C@H]2C(=O)N[C@@H](CN)C(=O)N[C@@H](CCC(=O)O)C(=O)N2C[C@H](O)C[C@H]2C(=O)N[C@@H](Cc2c[nH]c3ccccc23)C(=O)N[C@@H](CO)C(=O)N[C@@H](Cc2c[nH]c3ccccc23)C(=O)N(C)[C@H]2CCCC/C=C\CCCC[C@@H](C(=O)N[C@@H](CCC(=O)O)C(=O)N[C@H](C(=O)NCC(N)=O)CSCC(=O)N[C@@H](Cc3ccc(O)cc3)C(=O)N1C)N(C)C2=O` [Example 1111], 0.002 to 0.0099 µM; with `C[C@@H]1NC(=O)[C@@H]2CCCC/C=C\CCCC[C@@H](C(=O)N2C)N(C)C(=O)[C@H](Cc2c[nH]c3ccccc23)NC(=O)[C@H](CO)NC(=O)[C@H](Cc2c[nH]c3ccccc23)NC(=O)[C@@H]2C[C@@H](O)CN2C(=O)[C@H](CCC(N)=O)NC(=O)[C@H](CN)NC(=O)[C@@H]2CCCN2C(=O)[C@H](CC(=O)O)NC(=O)[C@H](C)N(C)C(=O)[C@H](Cc2ccc(O)cc2)NC(=O)CSC[C@@H](C(=O)NCC(N)=O)NC1=O` [Example 1112], 0.002 to 0.0099 µM.
